Results published in US7285701B2, “Cyanobacterial nucleic acid fragments encoding proteins useful for controlling plant traits via nuclear or plastome transformation” (BASF Plant Science GmbH, priority 2001, dated 2007).

Legend:
[1] = system: E. coli M1262 expressing the cyanobacterial ahas gene; assay: Growth on minimal media of E. coli M1262 expressing the cyanobacterial ahas gene; type: cell-based
Description: To confirm that these plasmids carry functional AHAS sequences, plasmid DNA from each of the ten rescued colonies was transformed into the E. coli strain M1262. (leuB6, ilv1614, ilvH612, λ^−, relA1, spoT1, ilvB619, ilvG603, ilfG605(am), thi-1) (Genetics Stock Center, Yale University). This strain of E. coli is lacking in AHAS. […] The ahas gene can therefore be used for achieving herbicide tolerance in crops by transformation into the nuclear or plastidic genome.

Arabidopsis plants = assay: Lethality to Arabidopsis plants in agar media; type: in vivo
Experimental: (§1) In vivo testing of Synechocystis PCC6803 and Anabaena PCC7120 was done by culturing the organisms in varying concentrations of the commercial herbicides. […] For relative comparison purposes a concentration of 1 μM PURSUIT® imazethapyr in agar media is lethal to Arabidopsis plants.

Synechocystis AHAS = assay: In vitro AHAS assay; type: biochemical, Synechocystis PCC6803; settings: 100 μM
Experimental: (§2) AHAS is the target site of both PURSUIT® imazethapyr and OUST® sulfometuron methyl herbicides. To determine if resistance to the herbicides is due to a natural resistance to inhibition of the acetohydroxyacid synthase enzymes from the cyanobacteria, or if it is due to alternative mechanisms (e.g. lack of entry into the cell), the in vitro activity of the AHAS enzyme in the presence of the herbicides was tested.
(§3) AHAS assays were performed with slight modification as described by Singh et. al (Singh B K, Stidham M A, Shaner D L, 1988, Assay for acetohydroxyacid synthase from plants. Anal Biochem 171: 173-179).
(§4) Synechocystis PCC6803 and Anabaena PCC7120 were cultured in 1.5 L of BG-11 media. Cells were collected by centrifuge and stored frozen at −80° C. Frozen cells were thawed and placed in a 30 mL Bead Beater cell disruptor chamber (BioSpec Corp Bartlesville, Okla.). Seven mL of acid washed sand was added. The chamber was filled with 2× ASHA assay buffer, consisting of 100 mM HEPES pH7.0, 200 mM pyruvate, 20 mM MgCl2, 2 mM TPP (Thiamine pyrophosphate) and 100 μM FAD (flavin adenine dinucleotide).
(§5) The Bead Beater cell disruptor was packed in ice and turned on for 10 seconds, followed by cooling for 3 minutes. This cycle was repeated five times. The extract was transferred into a centrifuge tube, and spun in a Beckman SA20 (Beckman, Fullerton, Calif.) rotor for 15 minutes at 17,000 rpms. […]

Anabaena AHAS = assay: In vitro AHAS assay; type: biochemical, Anabaena PCC7120; settings: 100 μM
Experimental: as §2, §3, §4, §5

Wild type (W-38) tobacco = assay: PURSUIT imazethapyr spray test, wild type tobacco; type: in vivo; settings: 18 g/ha, 5 weeks after the test
Experimental: (§6) Observations and photos (FIG. 8) of the PURSUIT® imazethapyr spray test were taken 5 weeks after the test was conducted. […] Leaves assumed a thin, spiny form.

p116 line G-981208-1.1 = assay: PURSUIT imazethapyr spray test, p116 line; type: in vivo, tobacco
Experimental: as §6

[2] = system: p111 and p112 transplastomic tobacco lines; assay: PURSUIT imazethapyr spray test, p111 and p112 lines; type: in vivo; settings: 18 g/ha, 5 weeks after the test
Experimental: as §6

Synechocystis PCC6803 = assay: In vivo growth in BG-11 media with commercial herbicides; type: cell-based; settings: 100 μM, one week of culture in BG-11 media
Experimental: (§7) In vivo resistance of cyanobacteria to PURSUIT® imazethapyr and OUST® sulfometuron methyl. As a preliminary matter, Synechocystis PCC6803 and Anabaenia PCC7120 were tested for susceptibility to PURSUIT® imazethapyr and OUST® sulfometuron methyl. AHAS genes which are resistant to these herbicides are excellent candidates for transformation in plant plastomes and nuclear genomes. Such transformants can be used in a weed control strategy using a combination of transgenic herbicide resistant crops and herbicides.
as §1

Anabaena PCC7120 = assay: as above; type: cell-based; settings: 100 μM, one week of culture in BG-11 media
Experimental: as §7, §1

[3] = system: AHAS enzyme of pACBC222 line G-981208-1.1; assay: AHAS enzyme assay of transplastomic tobacco line; type: biochemical; settings: line sprayed with 18 g/ha PURSUIT imazethapyr; assay in the presence of the herbicide

In the case of `CCc1cnc(C2=NC(C)(C(C)C)C(=O)N2)c(C(=O)O)c1` (stereo not shown) [PURSUIT® imazethapyr, imazethapyr], the “growth on minimal media in the presence of the herbicide” value [1] is reported as “capable of growing”, the “concentration lethal to Arabidopsis plants” value (Arabidopsis plants) is reported as 1 µM and the “inhibition of AHAS enzyme” value (Synechocystis AHAS) is reported as “No significant inhibition”. For the same compound, the “inhibition of AHAS enzyme” value (Anabaena AHAS) was “No significant inhibition”, the spray test observation (Wild type (W-38) tobacco) was “wide-spread leaf necrosis and stunting of growth” and the growth (p116 line G-981208-1.1; 18 g/ha, 5 weeks after the test) was “uninhibited”. For the same compound, the leaf damage (p116 line G-981208-1.1; 18 or 35 g/ha, 5 weeks after the test) was “no visible leaf damage”, the growth (p116 line G-981208-1.1; 35 g/ha, 5 weeks after the test) was “slight stunting” and the “effect on new shoots and morphology” value (p116 line G-981208-1.1; p116 line, prolific shooting and morphological abnormalities in new shoots) was “strong growth regulator”. The spray test observation [2] was “wide-spread leaf necrosis and stunting of growth”, the inhibition of growth (Synechocystis PCC6803) was “No inhibition of growth” and the inhibition of growth (Anabaena PCC7120) was “No inhibition of growth”. For the same compound, the “increase in AHAS enzyme resistance compared with AHAS enzyme from unsprayed wild type tobacco” value [3] was roughly 20%.
